In patent US20250270159A1, “1-(CYCLOBUTANEMETHYLIDENE)-2, 4, 5-TRIMETHOXYBENZENE COMPOUND AND PREPARATION METHOD AND USE THEREOF” (CHENGDU XINRUI TAIKANG TECHNOLOGY CO., LTD., priority 2023, published 2025):

Key:
[1] = tested on: rat model of lithium-pilocarpine-induced epilepsy; experiment: Rat model of lithium-pilocarpine-induced epilepsy (SE), highest seizure grade score; format: in vivo, Sprague Dawley (SD) rats; details: 300 mg/kg oral gavage, 1 h after SE onset; acute phase; Racine 0-6
Experimental: (1) Experimental Animals: SPF Adult Male Sprague Dawley (SD) Rats, with a Weight of 200-250 g.
Methylscopolamine bromide, lithium chloride, and pilocarpine were weighed, and experimental drugs were dissolved to working concentrations (100 mg/mL of lithium chloride solution, 1 mg/mLof methylscopolamine bromide solution, and 20 mg/mL of pilocarpine solution) with 0.9% saline. Rats were injected intraperitoneally with lithium chloride (a dose of 127 mg/kg), and 18-20 h later, scopolamine methylbromide (a dose of 1 mg/kg) was injected intraperitoneally. […] Thereafter, an additional dose of 10 mg/kg pilocarpine was injected intraperitoneally every 30 min until the onset of a grade IV or higher status epilepticus (SE)-like seizure without significant intermittent intervals, with a maximum dose of 60 mg/kg.
Model inclusion criterion: experimental animals presenting continuous seizures of grade IV or higher for 1 h was judged as successful modeling.
The rats with successful modeling were randomly divided into three groups, namely a model group, a CTMB group, and a sodium valproate (VPA) group. […]
Referring to the grading scale of Racine scores, the seizure symptoms of each group of rats after the drug intervention were observed, and the seizure grades of each group of rats in the acute phase were recorded. […]

[2] = tested on: neurons in the substantia nigra region of the midbrain of PD mice; experiment: Niehl's staining, number of neuronal Niehl's bodies in substantia nigra of PD mice; format: in vivo, C57 mice; details: Group L, levodopa: benserazide hydrochloride=4:1, 12 mg/kg ip, after 4 weeks of administration
Experimental: (§1) The mice were randomly divided into a sham operation group (group S, given a blank emulsion with a volume equal to that of the administered group), a model group (group M, given a blank emulsion with a volume equal to that of the administered group), a CTMB group (20 mg/kg, group D), and a levodopa group (levodopa: benserazide hydrochloride=4:1, 12 mg/kg, group L), each group included 10-12 mice, and all of them were administered intraperitoneally.
(§2) After completing the evaluation of motor function after 4 weeks of drug administration, the mice were deeply anesthetized, perfused with 20 mL of saline and 20 mL of 4% paraformaldehyde via the heart, and the brains were rapidly severed and extracted from the head, which were then preserved and fixed in 4% paraformaldehyde for 72 h after removal, and then embedded with paraffin to prepare the slices with a thickness of 4 μm for subsequent pathological and histological studies.
Niehl's staining was used to identify Niehl's bodies in neuronal cells.

[3] = tested on: Parkinson's disease (PD) mice, 6-OHDA method; experiment: 6-OHDA Parkinson's disease mice, hanging experiment; format: in vivo, C57 mice; details: Group L, levodopa: benserazide hydrochloride=4:1, 12 mg/kg ip, cut-off 60 s
Experimental: as §1
(§3) Preoperatively, mice were fasted for 12 h, and mice were anesthetized with 4% isoflurane induction and maintained with 1.5% isoflurane. The mice were subsequently immobilized on a brain stereotaxic apparatus. The bregma and lambda points were exposed by gently wiping the cranial surface with a cotton swab after cutting the scalp. The stereotaxic apparatus was adjusted to align the heights of the bregma and lambda points, thereby leveling the skull. The bregma point was designated as the origin, the coordinates where the injection site was located were located, and the drill was used to drill a small hole in the skull above the injection site.
(§4) 6-OHDA (12.5 μg/μL) was injected into the striatum region (AP+0.5 mm; ML+2.00 mm; DV-3.00 mm and-2.00 mm) of the mice, and 1 μL 6-OHDA was injected into each of the two points at a rate of 0.5 μL/min. The needle was left in place for 3 min after the injection was completed, and then the injection needle was lifted, and the scalp of the mice was sutured and disinfected. The sham operation group was injected with an equal volume of saline containing 0.02% ascorbic acid, and other operations were performed as above. After the procedure, the mice were placed in the cage at an appropriate temperature. After awakening from anesthesia, the mice were kept normally.
The hanging experiment: normal mice have climbing activity, which requires proper grip strength and motor coordination, so the hanging experiment may be used to examine motor dysfunction in mice. A metal rod with a diameter of 1.5 mm was placed horizontally on top of the box, and a distance from the metal rod to the bottom of the box was 30 cm. […] Measurement was performed twice, with an interval of 1 min or more between each test, and the results were averaged over the two times.
(§5) The motor function of the mice was comprehensively assessed using the rod-climbing experiment and the hanging experiment at 1, 2, 3, and 4 weeks after drug administration.

[4] = tested on: neurons of substantia nigra region and striatum of PD mice; experiment: HE staining of substantia nigra and striatum of PD mice; format: in vivo, C57 mice; details: Group L, levodopa: benserazide hydrochloride=4:1, 12 mg/kg ip, 4 weeks; compared with model group; FIG. 5-7
Experimental: as §1, §2
Hematoxylin-eosin (HE) staining may be used to observe changes in the pathological condition of brain tissue. […]

[5] = tested on: Tyrosine hydroxylase (TH) protein expression; experiment: TH protein expression by immunohistochemistry in substantia nigra of PD mice; format: in vivo, C57 mice; details: Group L, levodopa: benserazide hydrochloride=4:1, 12 mg/kg ip, after 4 weeks of administration
Experimental: as §1, §2
Tyrosine hydroxylase (TH) protein expression was detected by immunohistochemistry. […]

[6] = tested on: Parkinson's disease (PD) mice, 6-OHDA method; experiment: 6-OHDA Parkinson's disease mice, rod-climbing experiment; format: in vivo, C57 mice; details: Group L, levodopa: benserazide hydrochloride=4:1, 12 mg/kg ip
Experimental: as §1, §3, §4
The rod-climbing experiment: the rod-climbing experiment was mainly used to test the limb movement ability of mice and to assess the symptoms of motor delay. This experiment evaluated the ability of mice to grasp and maneuver on a pole to descend to their home cage. A cork ball was fixed to an iron pole with a diameter of 1 cm and a length of 65 cm. The head of the mice was put down on the top of the pole, and the mice usually naturally descended down along the pole to return to their cage. The time for the mice to descend to the bottom was recorded. Results were averaged over 3 consecutive measurements.
as §5

Row | Structure (SMILES) | Seizure grade score (highest, SE model rats) [1] | Number of Niehl's bodies [2] | Hanging time, Before administration ([3]; baseline 2 weeks after 6-OHDA) [s] | Hanging time, 1 week of administration [3] [s] | Hanging time, 2 weeks of administration [3] [s] | Hanging time, 3 weeks of administration [3] [s] | Hanging time, 4 weeks of administration [3] [s] | degree of pathological damage to the substantia nigra region and striatum [4] | TH-positive neurons (a percentage of TH-positive neurons to uninjured side, %) [5] [%] | Rod-climbing time, 1 week of administration [6] | Rod-climbing time, 2 weeks of administration [6] [s] | Rod-climbing time, 3 weeks of administration [6] [s] | Rod-climbing time, 4 weeks of administration [6] [s] | Rod-climbing time, Before administration ([6]; baseline 2 weeks after 6-OHDA) [s]
1 | CCCC(CCC)C(=O)[O-].[Na+] [VPA, sodium valproate, reference compound] | 5.00 ± 0.00 |  |  |  |  |  |  |  |  |  |  |  |  | 
2 | N[C@@H](Cc1ccc(O)c(O)c1)C(=O)O [levodopa, Levodopa, reference compound] |  | 57.8 ± 6.5 | 43.7 ± 19.5 | 54.4 ± 8.0 | 47.0 ± 16.2 | 48.2 ± 18.1 | 50.3 ± 12.9 | reduced | 18.8 ± 7.6 | 6.39 ± 1.18 ^ s | 5.79 ± 0.49 | 5.34 ± 0.84 | 4.93 ± 0.59 | 9.63 ± 2.53
